Consider four compounds from paper doi:10.1101/2025.05.14.653428v1 (bioRxiv, 2025).

One may read the Tmax as the time at which the peak concentration occurs.

The nature of data set [1]: Evaluation of toxicity in vivo. Set-up: species or system mice. The settings on record: 10 days intraperitoneal, 1 mg/mouse/day, N=10/group.
Another data set concerns TGF-β in hepatocytes. Description: TGF-β mRNA and protein in cultured hepatocytes. In kind it is cell-based, murine. The following applies: hepatocytes on vitronectin, 24 hours.
A further data set relates to Huh-7 hepatoma cell line. Description: TGF-β protein in Huh-7 cells. Type of data set: cell-based. The settings on record: cultured on vitronectin, 50μg/mL, 24 hours.
In a further data set the test system is hepatocytes. Type of data set: cell-based, murine. The following applies: 50μg/mL, 24 hours, flow cytometry. For orientation: A flow cytometer gives signals particle by particle.
The subject of a further data set is pFAK in hepatocytes. Kind of data set: pFAK in hepatocytes by western blotting. Type of data set: cell-based, murine. The settings on record: suspension without FCS 2 hours, 50μg/mL for 30 minutes. On the technique in general: In western blotting, separated proteins are transferred to a membrane and probed.
Data set [2] in a line: GLQGE detection in plasma after injection. In kind it is in vivo, mice. The settings on record: for time to enter the circulation / time until cleared from the bloodstream: LC-MS/MS; for Tmax: mouse.

Where a SMILES comes first, the peptide text is derived from it.

Turning to GLOGE (head to tail), in data set [1], the “blood values of kidney function” value was “no significant abnormalities”, the “blood values of liver function” value is listed as “no significant abnormalities”, the “blood values of pancreas function” value was “no significant abnormalities” and the complete blood count result was “no significant abnormalities”.
For the compound `CS(=O)(=O)c1cccc(CNc2nc(Nc3ccc4c(c3)CCC(=O)N4)ncc2C(F)(F)F)c1` [PF573228, reference compound], the “TGF-β mRNA expression in wildtype hepatocytes after FAK inhibition” value with TGF-β in hepatocytes (5μM) is given as “rise”.
Consider GLNGE (head to tail), for which the “TGF-β protein in Huh-7” value in the data set on Huh-7 hepatoma cell line is “reduced”. Further, in the data set on TGF-β in hepatocytes (50μg/mL, qPCR), the “TGF-β mRNA in cultured hepatocytes compared to GLOGE” value is on record as “diminished”. In addition, in data set [1], the “blood values of kidney function” value is listed as “no significant abnormalities”, the “blood values of liver function” value was “no significant abnormalities”, the “blood values of pancreas function” value is reported as “no significant abnormalities” and the complete blood count result was “no significant abnormalities”.
For the compound `CC(C)C[C@@H]1NC(=O)CNC(=O)[C@H](CCC(=O)O)NC(=O)CNC(=O)[C@H](CCC(N)=O)NC1=O` [GLQGE] (cyclo(EGLQG)), in the data set on hepatocytes, the “hepatocyte apoptosis (annexinv-propidium-iodide staining)” value is recorded as “did not affect” and the “hepatocyte proliferation (ki67 staining)” value is “did not affect”. The “pFAK in hepatocytes from β3 global knockout mice” value in the data set with pFAK in hepatocytes is recorded as “increase”. The pFAK in hepatocytes entry in the data set with pFAK in hepatocytes (western blotting) is on record as “increased”. The “total TGF-β protein in hepatocytes” value with TGF-β in hepatocytes (50μg/mL, MLEC bioassay) is recorded as “suppressed”. In the data set on TGF-β in hepatocytes (50μg/mL, qPCR), the “TGF-β mRNA expression in cultured hepatocytes compared to untreated control” value is given as “diminished”. Also, in data set [1], the “blood values of kidney function” value was “no significant abnormalities”, the “blood values of liver function” value is on record as “no significant abnormalities”, the “blood values of pancreas function” value was “no significant abnormalities” and the complete blood count entry is listed as “no significant abnormalities”. Moreover, in data set [2] (i.p. injection of 0.5 mg GLQGE), the “time to enter the circulation” value was no more than 5 min and the “time until cleared from the bloodstream” value is no more than 120 min. The Tmax in data set [2] (ip, 0.5 mg/mouse) is 15 min. Besides, in data set [2] (sc, 1 mg/mouse), the Tmax was 15 min. In data set [2] (s.c. injection of 1 mg GLQGE), the “time to enter the circulation” value is no more than 5 min and the “time until cleared from the bloodstream” value is no more than 120 min.
